# Reference: article PMC7759402 (Journal of Analytical Methods in Chemistry, 2020)
# What was measured:
# [1] = system: pancreatic ductal adenocarcinoma xenograft; conditions: combination therapy of VS-5584 with ERK inhibitor SCH772984; cited from earlier work
# [2] = Stability of VS-5584 in rat plasma (QC samples, UPLC-MS/MS); assay type: in vitro ADME; conditions: for Stability RE (%): n = 3
# Protocol: Quality control (QC) samples were prepared at LLOQ, low, medium, and high concentrations (1.0, 2.0, 200, and 800 ng/mL) separately in the same manner. The IS working solution was prepared in acetonitrile at a concentration of 40 ng/mL.
# Stability studies were conducted under a variety of different conditions. The accuracy and precision under the above conditions should be within ±15%.
SMILES,tumor suppression rate [1] [%],stability of processed samples (in words) ([2]; 4°C in an autosampler for 12 h),"Stability RE (%) ([2]; processed samples, 4°C in autosampler for 12 h, spiked 2.0 ng/mL)","Stability RE (%) ([2]; processed samples, 4°C in autosampler for 12 h, spiked 200 ng/mL)","Stability RE (%) ([2]; processed samples, 4°C in autosampler for 12 h, spiked 800 ng/mL)","Stability RE (%) ([2]; rat plasma, 12 h at room temperature, spiked 2.0 ng/mL)","Stability RE (%) ([2]; rat plasma, 12 h at room temperature, spiked 200 ng/mL)","Stability RE (%) ([2]; rat plasma, 12 h at room temperature, spiked 800 ng/mL)","Stability RE (%) ([2]; rat plasma, 30 days at −25°C, spiked 2.0 ng/mL)","Stability RE (%) ([2]; rat plasma, 30 days at −25°C, spiked 200 ng/mL)","Stability RE (%) ([2]; rat plasma, 30 days at −25°C, spiked 800 ng/mL)","Stability RE (%) ([2]; rat plasma, three freeze–thaw cycles, spiked 2.0 ng/mL)","Stability RE (%) ([2]; rat plasma, three freeze–thaw cycles, spiked 200 ng/mL)","Stability RE (%) ([2]; rat plasma, three freeze–thaw cycles, spiked 800 ng/mL)","stability in rat plasma (in words) ([2]; −25°C for 30 days, room temperature for 12 h, three freeze-thaw cycles)"
O=C(Nc1ccc2[nH]nc(-c3ccncc3)c2c1)[C@@H]1CCN(CC(=O)N2CCN(c3ccc(-c4ncccn4)cc3)CC2)C1 [SCH772984],80,,,,,,,,,,,,,,
Cc1nc2c(-c3cnc(N)nc3)nc(N3CCOCC3)nc2n1C(C)C [VS-5584],,remained intact,−8.7,10.4,9.9,−7.0,10.7,9.2,9.4,−12.2,−5.7,−6.5,−6.5,7.4,stable
